Measured values: patent US9707305B2, “Formulas for diagnosing and treating hormone-dependent cancers and cancers of the organs responsible for steroid hormone synthesis” (Commissariat à l'énergie atomique et aux énergies …, priority 2011, dated 2017)

Experiment: Biodistribution of the nano-emulsion of Example 1.1 in male mice (Tables 15 to 21)
Type: in vivo
Conditions: FVB male mouse
Experimental: In the following examples, the radioactivity was counted with the TRiCarb Counter (Ref: Packard, Liquid Scintillation Analyzers; Models 2200CA).
Fluobeam 700 (Fluoptics) is the apparatus with which the whole of the organs from the biodistribution were analyzed in fluorescence as well as the one with which the biodistribution kinetics of the nano-emulsions were established in vivo. This imaging system allows viewing of the fluorescence in spectral bands from 700 to 850 nm for a 650 nm excitation. The apparatus consists of an electric case containing the laser of class 3B, its power supply and an optical head containing the CCD camera. […]

SMILES: CCCCCCCCCCCCCCCCCCN1/C(=C/C=C/C=C/C2=[N+](CCCCCCCCCCCCCCCCCC)c3ccccc3C2(C)C)C(C)(C)c2ccccc21.[O-][Cl+3]([O-])([O-])[O-] [DiD, l,r-dioctadécyl-3,3,3′,3′-tetramethylindodicarbocyanine (DiD) perchlorate]
- fluorescence intensity in Adrenal gland (2 h): 779.1
- fluorescence intensity in Adrenal gland (4 h): 536.1
- fluorescence intensity in Adrenal gland (6 h): 721.9
- fluorescence intensity in Adrenal gland (16 h): 1086.2
- fluorescence intensity in Adrenal gland (24 h): 1105.9
- fluorescence intensity in Adrenal gland (48 h): 783.7
- fluorescence intensity in Adrenal gland (72 h): 717.3
- fluorescence intensity in Brain (2 h): 186.5
- fluorescence intensity in Brain (4 h): 150.6
- fluorescence intensity in Brain (6 h): 235.9
- fluorescence intensity in Brain (16 h): 134.7
- fluorescence intensity in Brain (24 h): 109.3
- fluorescence intensity in Brain (48 h): 160.4
- fluorescence intensity in Brain (72 h): 14.8
- fluorescence intensity in Fat (2 h): 184.0
- fluorescence intensity in Fat (4 h): 128.3
- fluorescence intensity in Fat (6 h): 221.1
- fluorescence intensity in Fat (16 h): 117.0
- fluorescence intensity in Fat (24 h): 142.1
- fluorescence intensity in Fat (48 h): 185.1
- fluorescence intensity in Fat (72 h): 78.0
- fluorescence intensity in Heart (2 h): 427.6
- fluorescence intensity in Heart (4 h): 306.9
- fluorescence intensity in Heart (6 h): 253.8
- fluorescence intensity in Heart (16 h): 281.5
- fluorescence intensity in Heart (24 h): 239.7
- fluorescence intensity in Heart (48 h): 178.1
- fluorescence intensity in Heart (72 h): 142.3
- fluorescence intensity in Intestine (2 h): 392.1
- fluorescence intensity in Intestine (4 h): 336.2
- fluorescence intensity in Intestine (6 h): 378.0
- fluorescence intensity in Intestine (16 h): 640.4
- fluorescence intensity in Intestine (24 h): 621.0
- fluorescence intensity in Intestine (48 h): 381.6
- fluorescence intensity in Intestine (72 h): 267.8
- fluorescence intensity in Kidney (2 h): 601.1
- fluorescence intensity in Kidney (4 h): 505.0
- fluorescence intensity in Kidney (6 h): 427.7
- fluorescence intensity in Kidney (16 h): 343.0
- fluorescence intensity in Kidney (24 h): 323.1
- fluorescence intensity in Kidney (48 h): 168.3
- fluorescence intensity in Kidney (72 h): 160.3
- fluorescence intensity in Liver (2 h): 831.9
- fluorescence intensity in Liver (4 h): 813.0
- fluorescence intensity in Liver (6 h): 847.4
- fluorescence intensity in Liver (16 h): 1157.2
- fluorescence intensity in Liver (24 h): 1152.7
- fluorescence intensity in Liver (48 h): 988.2
- fluorescence intensity in Liver (72 h): 648.0
- fluorescence intensity in Lung (2 h): 559.9
- fluorescence intensity in Lung (4 h): 446.4
- fluorescence intensity in Lung (6 h): 426.0
- fluorescence intensity in Lung (16 h): 423.5
- fluorescence intensity in Lung (24 h): 406.0
- fluorescence intensity in Lung (48 h): 346.5
- fluorescence intensity in Lung (72 h): 286.6
- fluorescence intensity in Muscle (2 h): 176.7
- fluorescence intensity in Muscle (4 h): 152.3
- fluorescence intensity in Muscle (6 h): 169.3
- fluorescence intensity in Muscle (16 h): 281.9
- fluorescence intensity in Muscle (24 h): 144.9
- fluorescence intensity in Muscle (48 h): 131.7
- fluorescence intensity in Muscle (72 h): 109.2
- fluorescence intensity in Pancreas (2 h): 255.1
- fluorescence intensity in Pancreas (4 h): 295.0
- fluorescence intensity in Pancreas (6 h): 347.0
- fluorescence intensity in Pancreas (16 h): 332.6
- fluorescence intensity in Pancreas (24 h): 268.9
- fluorescence intensity in Pancreas (48 h): 266.2
- fluorescence intensity in Pancreas (72 h): 160.6
- fluorescence intensity in Salivary gland (2 h): 310.0
- fluorescence intensity in Salivary gland (4 h): 297.8
- fluorescence intensity in Salivary gland (6 h): 488.5
- fluorescence intensity in Salivary gland (16 h): 838.8
- fluorescence intensity in Salivary gland (24 h): 501.1
- fluorescence intensity in Salivary gland (48 h): 489.7
- fluorescence intensity in Salivary gland (72 h): 430.2
- fluorescence intensity in Seminal gland (4 h): 179.5
- fluorescence intensity in Seminal gland (6 h): 261.0
- fluorescence intensity in Seminal gland (16 h): 163.0
- fluorescence intensity in Seminal gland (24 h): 170.6
- fluorescence intensity in Seminal gland (48 h): 166.7
- fluorescence intensity in Seminal gland (72 h): 74.4
- fluorescence intensity in Seminal glands (Seminal glands, 2 h): 175.3
- fluorescence intensity in Spleen (2 h): 455.7
- fluorescence intensity in Spleen (4 h): 407.4
- fluorescence intensity in Spleen (6 h): 488.6
- fluorescence intensity in Spleen (16 h): 373.3
- fluorescence intensity in Spleen (24 h): 638.0
- fluorescence intensity in Spleen (48 h): 656.7
- fluorescence intensity in Spleen (72 h): 278.0
- fluorescence intensity in Testicle (2 h): 639.9
- fluorescence intensity in Testicle (4 h): 470.9
- fluorescence intensity in Testicle (6 h): 723.1
- fluorescence intensity in Testicle (16 h): 525.4
- fluorescence intensity in Testicle (48 h): 648.6
- fluorescence intensity in Testicle (72 h): 481.2
